Assays:
Assay in all cases: relative viability (nuclei count vs DMSO), 5 days (fraction); higher = more cells survive
ChaGo-K-1 = system: ChaGo-K-1
Procedure, shortened: (§1)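 The day after seeding in 1536-well plates, lung cancer cell lines were treated by pin tool with a single drug, or with a fixed anchor-drug dose together with five library-drug doses (not always all listed) in √10 steps. After 5 days, a combined fix-and-stain solution (final 0.05% Triton X-100, 1% formaldehyde, 1 ug/ml Hoechst) was added. Nuclei counted on 4× images gave relative viability as treated counts over vehicle counts, reported as the median of duplicate plates.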

EKVX = system: EKVX
Procedure, shortened: as §1

EPLC-272H = system: EPLC-272H
Procedure, shortened: as §1

H3255 = system: H3255
Procedure, shortened: as §1

HCC-827 = system: HCC-827
Procedure, shortened: as §1

HOP-62 = system: HOP-62
Procedure, shortened: as §1

LCLC-97TM1 = system: LCLC-97TM1
Procedure, shortened: as §1

LK-2 = system: LK-2
Procedure, shortened: as §1

LU99A = system: LU99A
Procedure, shortened: as §1

LXF-289 = system: LXF-289
Procedure, shortened: as §1

NCI-H1355 = system: NCI-H1355
Procedure, shortened: as §1

NCI-H1650 = system: NCI-H1650
Procedure, shortened: as §1

NCI-H1993 = system: NCI-H1993
Procedure, shortened: as §1

NCI-H2170 = system: NCI-H2170
Procedure, shortened: as §1

NCI-H2228 = system: NCI-H2228
Procedure, shortened: as §1

NCI-H2405 = system: NCI-H2405
Procedure, shortened: as §1

NCI-H3122 = system: NCI-H3122
Procedure, shortened: as §1

NCI-H441 = system: NCI-H441
Procedure, shortened: as §1

PC-3 [JPC-3] = system: PC-3 [JPC-3]
Procedure, shortened: as §1

SK-LU-1 = system: SK-LU-1
Procedure, shortened: as §1

SW 1573 = system: SW 1573
Procedure, shortened: as §1

UMC-11 = system: UMC-11
Procedure, shortened: as §1

## Cc1csc(=NC2CCCCC2)n1/N=C/c1ccc(O)c(O)c1O [MIM1] + COc1cc2c(Oc3ccc(NC(=O)C4(C(=O)Nc5ccc(F)cc5)CC4)cc3F)ccnc2cc1OCCCN1CCOCC1 [Foretinib] (partner 0.25 µM)
ChaGo-K-1; first compound 0.2 µM
  relative viability: 0.973
ChaGo-K-1; first compound 0.6325 µM
  relative viability: 1
ChaGo-K-1; first compound 2 µM
  relative viability: 0.774
ChaGo-K-1; first compound 6.325 µM
  relative viability: 0.771
ChaGo-K-1; first compound 20 µM
  relative viability: 0.282
EKVX; first compound 0.2 µM
  relative viability: 0.766
EKVX; first compound 0.6325 µM
  relative viability: 0.234
EKVX; first compound 2 µM
  relative viability: 0.75
EKVX; first compound 6.325 µM
  relative viability: 0.379
EKVX; first compound 20 µM
  relative viability: 0.422
EPLC-272H; first compound 0.2 µM
  relative viability: 0.779
EPLC-272H; first compound 0.6325 µM
  relative viability: 0.724
EPLC-272H; first compound 2 µM
  relative viability: 0.622
EPLC-272H; first compound 6.325 µM
  relative viability: 0.159
EPLC-272H; first compound 20 µM
  relative viability: 0.12
H3255; first compound 0.2 µM
  relative viability: 0.945
H3255; first compound 0.6325 µM
  relative viability: 0.715
H3255; first compound 2 µM
  relative viability: 0.743
H3255; first compound 6.325 µM
  relative viability: 0.724
H3255; first compound 20 µM
  relative viability: 0.307
HCC-827; first compound 0.2 µM
  relative viability: 1.04
HCC-827; first compound 0.6325 µM
  relative viability: 1
HCC-827; first compound 2 µM
  relative viability: 1.01
HCC-827; first compound 6.325 µM
  relative viability: 0.402
HCC-827; first compound 20 µM
  relative viability: 0.207
HOP-62; first compound 0.2 µM
  relative viability: 1.14
HOP-62; first compound 0.6325 µM
  relative viability: 1.1
HOP-62; first compound 2 µM
  relative viability: 0.986
HOP-62; first compound 6.325 µM
  relative viability: 0.94
HOP-62; first compound 20 µM
  relative viability: 0.278
LCLC-97TM1; first compound 0.2 µM
  relative viability: 0.92
LCLC-97TM1; first compound 0.6325 µM
  relative viability: 1.08
LCLC-97TM1; first compound 2 µM
  relative viability: 0.888
LCLC-97TM1; first compound 6.325 µM
  relative viability: 0.611
LCLC-97TM1; first compound 20 µM
  relative viability: 0.259
LK-2; first compound 0.2 µM
  relative viability: 1.46
LK-2; first compound 2 µM
  relative viability: 1.33
LK-2; first compound 6.325 µM
  relative viability: 1.17
LK-2; first compound 20 µM
  relative viability: 0.218
LU99A; first compound 0.2 µM
  relative viability: 0.808
LU99A; first compound 0.6325 µM
  relative viability: 0.775
LU99A; first compound 2 µM
  relative viability: 0.751
LU99A; first compound 6.325 µM
  relative viability: 0.743
LU99A; first compound 20 µM
  relative viability: 0.407
LXF-289; first compound 0.2 µM
  relative viability: 1.02
LXF-289; first compound 0.6325 µM
  relative viability: 0.9
LXF-289; first compound 2 µM
  relative viability: 1.03
LXF-289; first compound 6.325 µM
  relative viability: 0.789
LXF-289; first compound 20 µM
  relative viability: 0.721
NCI-H1355; first compound 0.2 µM
  relative viability: 0.911
NCI-H1355; first compound 0.6325 µM
  relative viability: 0.885
NCI-H1355; first compound 2 µM
  relative viability: 0.976
NCI-H1355; first compound 6.325 µM
  relative viability: 0.87
NCI-H1355; first compound 20 µM
  relative viability: 0.629
NCI-H1650; first compound 0.2 µM
  relative viability: 1.16
NCI-H1650; first compound 0.6325 µM
  relative viability: 1.12
NCI-H1650; first compound 2 µM
  relative viability: 0.832
NCI-H1650; first compound 6.325 µM
  relative viability: 0.265
NCI-H1650; first compound 20 µM
  relative viability: 0.142
NCI-H1993; first compound 0.2 µM
  relative viability: 0.7
NCI-H1993; first compound 0.6325 µM
  relative viability: 0.715
NCI-H1993; first compound 2 µM
  relative viability: 0.671
NCI-H1993; first compound 6.325 µM
  relative viability: 0.659
NCI-H1993; first compound 20 µM
  relative viability: 0.64
NCI-H2170; first compound 0.2 µM
  relative viability: 0.979
NCI-H2170; first compound 0.6325 µM
  relative viability: 1.01
NCI-H2170; first compound 2 µM
  relative viability: 0.824
NCI-H2170; first compound 6.325 µM
  relative viability: 0.77
NCI-H2170; first compound 20 µM
  relative viability: 0.295
NCI-H2228; first compound 0.2 µM
  relative viability: 1.06
NCI-H2228; first compound 0.6325 µM
  relative viability: 0.951
NCI-H2228; first compound 2 µM
  relative viability: 0.853
NCI-H2228; first compound 6.325 µM
  relative viability: 0.583
NCI-H2228; first compound 20 µM
  relative viability: 0.247
NCI-H2405; first compound 0.2 µM
  relative viability: 1.05
NCI-H2405; first compound 0.6325 µM
  relative viability: 1.05
NCI-H2405; first compound 2 µM
  relative viability: 1
NCI-H2405; first compound 6.325 µM
  relative viability: 0.741
NCI-H2405; first compound 20 µM
  relative viability: 0.866
NCI-H3122; first compound 0.2 µM
  relative viability: 0.891
NCI-H3122; first compound 0.6325 µM
  relative viability: 1.03
NCI-H3122; first compound 2 µM
  relative viability: 1.03
NCI-H3122; first compound 6.325 µM
  relative viability: 0.683
NCI-H3122; first compound 20 µM
  relative viability: 0.64
NCI-H441; first compound 0.2 µM
  relative viability: 1.17
NCI-H441; first compound 2 µM
  relative viability: 1.01
NCI-H441; first compound 6.325 µM
  relative viability: 0.617
NCI-H441; first compound 20 µM
  relative viability: 0.256
PC-3 [JPC-3]; first compound 0.2 µM
  relative viability: 1.01
PC-3 [JPC-3]; first compound 0.6325 µM
  relative viability: 1.05
PC-3 [JPC-3]; first compound 2 µM
  relative viability: 1.01
PC-3 [JPC-3]; first compound 6.325 µM
  relative viability: 0.763
PC-3 [JPC-3]; first compound 20 µM
  relative viability: 0.531
SK-LU-1; first compound 0.2 µM
  relative viability: 0.849
SK-LU-1; first compound 0.6325 µM
  relative viability: 0.821
SK-LU-1; first compound 2 µM
  relative viability: 0.849
SK-LU-1; first compound 6.325 µM
  relative viability: 0.75
SK-LU-1; first compound 20 µM
  relative viability: 0.788
SW 1573; first compound 0.2 µM
  relative viability: 1.04
SW 1573; first compound 0.6325 µM
  relative viability: 0.963
SW 1573; first compound 2 µM
  relative viability: 0.809
SW 1573; first compound 6.325 µM
  relative viability: 0.871
SW 1573; first compound 20 µM
  relative viability: 0.539
UMC-11; first compound 0.2 µM
  relative viability: 1.07
UMC-11; first compound 2 µM
  relative viability: 1.2
UMC-11; first compound 6.325 µM
  relative viability: 0.703
UMC-11; first compound 20 µM
  relative viability: 0.335
